Values of other authors, collected in patent US20110256545A1, “mRNA expression-based prognostic gene signature for non-small cell lung cancer” (priority 2010, published 2011).
Entries after “also recorded” stand apart in the source; their conditions may differ.

System: NCI-60 cell lines
Conditions: the value is the cell line; for Resistant lung cancer cell lines: NCI-60 lung cancer (LC) cell lines classed as resistant to the agent; for Sensitive lung cancer cell lines: NCI-60 lung cancer (LC) cell lines classed as sensitive to the agent

SMILES	Resistant lung cancer cell lines	Sensitive lung cancer cell lines
N.N.O=C([O-])C1(C(=O)[O-])CCC1.[Pt+2] [Carboplatin]	LC: EKVX	LC: NCI_H460; also recorded: LC: NCI_H522
N.N.[Cl][Pt][Cl] [Cisplatin]	LC: NCI_H226; also recorded: LC: EKVX	LC: HOP_62; also recorded: LC: NCI_H460
COc1cc([C@@H]2c3cc4c(cc3[C@@H](O[C@@H]3O[C@@H]5CO[C@@H](C)O[C@H]5[C@H](O)[C@H]3O)[C@H]3COC(=O)[C@H]23)OCO4)cc(OC)c1O [Etoposide]	LC: EKVX	LC: HOP_62; also recorded: LC: NIC_H460
CC(=O)O[C@H]1C(=O)[C@@]2(C)[C@H]([C@H](OC(=O)c3ccccc3)[C@]3(O)C[C@H](OC(=O)[C@H](O)[C@@H](NC(=O)c4ccccc4)c4ccccc4)C(C)=C1C3(C)C)[C@]1(OC(C)=O)CO[C@@H]1C[C@@H]2O [Paclitaxel]	LC: HOP_92; also recorded: LC_EKVX	LC: NCI_H460; also recorded: LC: NCI_H522
